The nature of data set [1]: Stability in human plasma. In kind it is in vitro ADME. The following applies: 10 μg/ml in human plasma, 37 degrees C, 5 hours; normalized to a standard (100%).
Data set [2] has as its system human kidney brush border membrane protein extracts. Nature of the data set: Human kidney brush border membrane (KBBM) stability assay. In kind it is in vitro ADME. The following applies: hKBBM, 30 microM peptide, 37 degrees C, 5 hours; relative to positive control.
Method: Relative stability of representative peptides in a human kidney brush border membrane (KBBM) assay was performed as follows. Human kidney brush border membrane protein extracts are rich in various peptidases. […] In a separate vial, peptide stock solution (300 microM in 50% acetonitrile in water) was prepared and 70 microL of this solution was added to the above hKBBMP solution. The solution was gently mixed by manual shaking so that the final peptide concentration is 30 microM. Then 100 microL of this solution was aliquoted into six different tubes and into one tube 200 microL of enzyme stop solution (50% acetonitrile in water with 0.1% TFA) was added. This tube was used for the measurement of the initial peptide concentration at time t=0 minute while all other 5 tubes were incubated at 37 degrees C. using a water bath. At intervals of 1, 2, 3, 4 and 5 hour, each tube was taken out and quenched with 200 microL of stop solution. Finally, all six tubes were centrifuged at 1800×g for 10 min to remove any precipitated proteins. The supernatant (10 microL) was transferred into an HPLC auto sampler, and by using selected ion count method AUC was measured. Each sample was run in triplicates and average AUC was calculated for data analysis. Sample analysis was done on Agilent HPLC with mass detector with an acetonitrile with 0.1% TFA gradient. […]
The next data set concerns NIH/Swiss female mice. Nature of the data set: OGTT DOA (oral glucose tolerance test for duration of action). In kind it is in vivo, mouse. Conditions: for % Glucose Lowering Compared to Vehicle: 25 nmol/kg IP at t=-1 day, glucose gavage 1.5 g/kg at t=0, blood glucose at 30 min, 24 hours post dose. The protocol:
In vivo assays for activity and duration of action and pharmacokinetics can be done using known methods. For example, duration can be performed using an oral glucose tolerance test (OGTT) in which the drug is administered to the subject at a desired time point before the glucose is administered orally (to measure drug duration of action; OGTT DOA) and glucose blood levels are measured (e.g. readily done in mice). Activity and duration can also be measured using an intravenous glucose tolerance test (IVGTT) in which the drug is administered to the subject at a desired time point before the glucose is administered IV (IVGTT DOA) and blood glucose levels are measured (e.g. can readily be done in rats). Preferred engineered compounds have a desired effect on blood glucose of at least 24 hours duration after a single dose of drug, preferably at least 3 days, at least 4 days, at least 5 days, at least 6 days, and at least 1 week after the single dose of drug is given.
The effects on blood glucose prior to glucose gavage ([…]) and at 30 minutes post-glucose gavage were investigated 1 day post dose of peptide compound with varying amounts of Cmpd 15, with results shown in FIGS. 1A-1B. Bars represent mean±sd. Peptide was injected IP at t=−1 day. Glucose gavage (1.5 g/kg) given at t=0 to 4-hour fasted NIH/Swiss female mice. Blood glucose was measured with a OneTouch® Ultra® (LifeScan, Inc., a Johnson & Johnson Company, Milpitas, Calif.) * p<0.05 vs. vehicle control; ANOVA, Dunnett's test. This OGTT DOA indicates drug activity is present at least 24 hours after drug was administered. Exendin-4 (unconjugated) was ineffective in this assay when dosed at t-24 hours (1 day prior to the glucose assay), and even at higher doses.
The effects on blood glucose prior to gavage ([…]) and at 30 min were investigated 2 day post dose with varying amounts of Cmpd 15, with results shown in FIGS. 2A-2B. This OGTT DOA indicates drug activity is present at least 48 hours after drug was administered.
A comparison of the effects of Cmpds 15 and 8 on blood glucose was conducted, with results depicts in FIGS. 3A-3B. This OGTT DOA indicates drug activity is present at least 24 hours after drug was administered.
The effects of Cmpds 15, 8 and 10 on the change in blood glucose at 30 min (% pre-gavage) was investigated, as depicted in FIG. 7. In the figure, bars represent mean±s.d. Test compound was injected IP at t=−1 day. Glucose gavage (1.5 g/kg) given at t=0 to 4 hr fasted NIH/Swiss female mice. Blood glucose was measured as described herein. This OGTT DOA indicates drug activity is present at least 24 hours after drug was administered.
The effects of compounds disclosed herein on the change in blood glucose at 30 min (% pre-gavage) were investigated as described above. Test compound was injected IP at t=−1 day at 25 nmol/kg. Glucose gavage (1.5 g/kg) given at t=0 to 4 hr fasted NIH/Swiss female mice. Blood glucose was measured as described herein. This OGTT DOA indicates drug activity is present at least 24 hours after drug was administered. […] Exendin-4 (unconjugated) was ineffective in this assay when dosed at t-24 hours, and even at higher doses. […] Cmpd 22 with an albumin binding sequence the PAB protein from P. magnus had little if any […] (3%) in the above assay.

In another data set the test system is ob/ob mice. Nature of the data set: Effect on body weight, glucose and HbA1c in ob/ob mice after single sc dose. Conditions: non-fasted male ob/ob mice; Cmpd 15 at 250 nmol/kg sc on day 0. In kind it is in vivo, mouse. The protocol:
The time course of the effect of Cmpd 15 on body weight, glucose and HbA1c in ob/ob mice was investigated post dose. […] Changes in glucose (% pre-treatment) and in HbA1c (% pre-treatment) are depicted in FIGS. 5B-5C. Points represent mean±s.d. (standard deviation). Cmpd 15 was injected sc on day=0 immediately following baseline sample collection in non-fasted male ob/ob mice. Unless indicated otherwise, blood glucose measures described herein employed a OneTouch® Ultra® device (LifeScan, Inc. Miliptas, Calif.).

Data set [3] concerns renal cortical tubular epithelial cells. Nature of the data set: Kidney vacuolization histopathology. In kind it is in vivo, mouse. Conditions: C57BL6 female mice, sc injection days 0-6, sacrifice day 7. The protocol: With some drugs, such as some pegylated proteins, undesirable vacuoles can form in cytoplasm of epithelial cells lining the proximal convoluted tubules, which is an undesirable toxicity measure. […] C57BL6 female mice (n=2 cages, 3 mice/cage) were weighed daily 3 hours prior to lights out. Immediately after weighing, on days 0-6 mice were injected subcutaneously with test compound. Mice were sacrificed on day 7 and kidneys submitted for histopathology. […] A positive control compound known to cause vacuole formation was scored as 3. The ABD polypeptide itself scored 0. Cmpd 15 scored 0.

The subject of the next data set is diabetic ob/ob mice. Nature of the data set: Chronic exposure in diabetic ob/ob mice (twice weekly, 28 days). In kind it is in vivo, mouse. The protocol:
The time course of the effect of the test compound on body weight, glucose lowering and HbA1c lowering in ob/ob mice was investigated post dose, with values at 4 weeks presented in FIGS. 11A, 11B, 11C and 11D. […] Points represent mean±s.d. (standard deviation). Each test compound was injected IP on day=0 immediately following baseline sample collection in non-fasted male ob/ob mice. The effects observed for the 25 nmol/kg biw (twice weekly) dose was greater than that observed for exendin-4 given at ˜7.2 nmol/kg/d by continuous infusion (CSI), a dose known to provide a maximal efficacy for exendin-4. […] Unless indicated otherwise, blood glucose measures described herein employed a OneTouch® Ultra® device (LifeScan, Inc. Miliptas, Calif.).

The nature of data set [4]: Pharmacokinetic profile after subcutaneous dosing in normal HSD rats. In kind it is in vivo, rat. The following applies: 25 nmol/kg single dose. The protocol: Blood was collected via tail bleed at t=1 hour, 3 hours, 6 hours, 24 hours, 48 hours, 72 hours, 96 hours and 168 hours from fed HSD male rats. Food and body weights were measured daily. […] Points represent mean±sd.

In another data set the test system is db/db mice. Nature of the data set: Oral delivery (gavage) in diabetic db/db mice, blood glucose. Conditions: PBS/propylene glycol (50:50).
Where [5] appears, read: 25 and 250 nmol/kg IP twice each week for 28 days.

Take `CC[C@H](C)[C@H](NC(=O)[C@H](Cc1ccccc1)NC(=O)[C@H](CCC(=O)O)NC(=O)[C@H](CCCCN)NC(=O)[C@H](C)NC(=O)[C@H](C)NC(=O)[C@H](CCC(N)=O)NC(=O)CNC(=O)[C@H](CCC(=O)O)NC(=O)[C@H](CC(C)C)NC(=O)[C@H](Cc1ccc(O)cc1)NC(=O)[C@H](CO)NC(=O)[C@H](CO)NC(=O)[C@@H](NC(=O)[C@H](CC(=O)O)NC(=O)[C@H](CO)NC(=O)[C@@H](NC(=O)[C@H](Cc1ccccc1)NC(=O)[C@@H](NC(=O)CNC(=O)[C@H](CCC(=O)O)NC(=O)[C@H](C)NC(=O)[C@@H](N)Cc1c[nH]cn1)[C@@H](C)O)[C@@H](C)O)C(C)C)C(=O)N[C@@H](C)C(=O)N[C@@H](Cc1c[nH]c2ccccc12)C(=O)N[C@@H](CC(C)C)C(=O)N[C@H](C(=O)N[C@@H](CCCCN)C(=O)NCC(=O)N[C@@H](CCCNC(=N)N)C(N)=O)C(C)C` [GLP-1(7-36) amide, reference compound]: the “Percent Stable in Human Plasma” value in data set [1] was 41.7%. In data set [2], the “Percent Stable” value amounted to 16%.
“HGEGTFTSDLSKQLEEEAVRLFIEWLKQGGPSKEIISGGSLAEAKVLANRELDKYGVSDFYKRLINKAKTVEGVEALKLHILAALP [Cmpd 33]”: the “% Glucose Lowering Compared to Vehicle” value in the data set with NIH/Swiss female mice is −19%.
Turning to “HGEGTFTSDLSKQLEEEAVRLFIEWLKQGGPSKEIISTGGGGSASLAEAKVLANRELDKYGVSDFYKRLINKAKTVEGVEALKLHILAALP [Cmpd 15]”, the “% Glucose Lowering Compared to Vehicle” value with NIH/Swiss female mice was −21%. Further, in the data set on ob/ob mice, the “effect on body weight” value was “significant body weight loss”. Moreover, the “Percent Stable in Human Plasma” value in data set [1] stood at 96.0%. In addition, the “Severity score for cytoplasmic vacuolation of renal cortical tubular epithelial cells” value in data set [3] turned out to be 0. In addition, the “effects compared to maximally efficacious dose of exendin-4 (7.2 nmol/kg/d CSI)” value in the data set on diabetic ob/ob mice (25 nmol/kg biw, comparable equimolar dose) is “exceeded the glycemic and body weight loss effects of the maximally efficacious dose of exendin-4”. In the data set with diabetic ob/ob mice (250 nmol/kg biw), the “effects compared to maximally efficacious dose of exendin-4” value is listed as “significantly greater”. For the same compound, in the data set on diabetic ob/ob mice (setting [5]), the “HbA1c lowering (% change from baseline)” value is “significant HbA1c lowering” and the “body weight loss (% change from baseline)” value was “significant body weight loss”. Further, the “HbA1c lowering and body weight loss compared to liraglutide” value in the data set on diabetic ob/ob mice (equimolar dosing to liraglutide, data not shown) is given as “more effective than liraglutide”. The “glucose lowering compared to liraglutide” value with diabetic ob/ob mice (equimolar dosing, twice weekly (BIW), chronic exposure) is “superior to liraglutide”. The apparent half-life in data set [4] is 54 h. Besides, the “blood glucose lowering activity after oral dosing” value with db/db mice (240 nmol/kg peroral gavage, to 120 minutes, 2-hour fasted db/db mice) was “active when dosed orally”. In the data set on db/db mice (peroral gavage, 1 mg/kg), the oral bioavailability result was “orally bioavailable”.
As for “HGEGTFTSDLSKQLEEEAVRLFIEWLKQGGPSKEIISTGGGGSGGGSGGGSGGGSASLAEAKVLANRELDKYGVSDFYKRLINKAKTVEGVEALKLHILAALP [Cmpd 8]”, in the data set on NIH/Swiss female mice, the “% Glucose Lowering Compared to Vehicle” value was −21%.
As to “HGEGTFTSDLSKQMEEEAVRLFIEWLKNGGSLAEAKVLANRELDKYGVSDFYKRLINKAKTVEGVEALKLHILAALP [Cmpd 32]”, the “glucose lowering activity when dosed 24 hours before the OGTT (in words)” value in the data set on NIH/Swiss female mice (dosed IP at t=-1 day) is “no glucose lowering”.
With “HGEGTFTSDLSKQMEEEAVRLFIEWLKNTGGGGSASLAEAKVLANRELDKYGVSDFYKRLINKAKTVEGVEALKLHILAALP [Cmpd 10]”, the “% Glucose Lowering Compared to Vehicle” value with NIH/Swiss female mice is recorded as −22%.

The record behind these values is patent US9593154B2, “Engineered polypeptides having enhanced duration of action” (AMYLIN PHARMACEUTICALS, LLC, priority 2010, dated 2017).
